Assay [1] relates to human colon carcinoma (Colo 201) cells. Kind of assay: XTT 72 hr growth inhibition (Assay 3), Colo201. The following applies: colorectal cancer, B-Raf ND, Ras ND. Format: cell-based. On the procedure: (§1) XTT 72 Hr Growth Inhibition Protocol for Mammalian Cultured Cells (Assay 3)
(§2) Human diploid foreskin fibroblasts (HFF) or human colon carcinoma (Colo 201) cells were grown in Dulbecco's modified Eagle's medium (DMEM) (Invitrogen/Life Technologies) containing 10% fetal bovine serum (FBS) and the antibiotics penicillin (100 Units/ml) and streotomycin (100 micrograms/ml) (Invitrogen/Life Technologies). Growth was at 37° C. in humidified 5% CO2 incubators in 75 cm^2 plastic flasks. Cells were harvested using 0.25% trypsin/1 mM ethylenediaminetetraacetic acid (EDTA), resuspended in growth medium, and counted using a hemocytometer. Flat-bottomed 96-well plates were seeded with 2×10^3 cells/well in a volume of 200 ul from trypsinized exponentially growing cultures. To “blank” wells, growth medium was added with no additions. Cells were incubated overnight to permit attachment.
(§3) Next day, medium from wells that contained cells was replaced with 180 microliters of fresh medium. Appropriate dilutions of test compounds were added to the wells from stock solutions of compound dissolved in dimethyl sulfoxide (DMSO); final DMSO concentration in all wells was 0.2%. […] Absorbance at 450 nm was then determined using a 96-well UV plate reader (Molecular Devices). Under these conditions, absorbance of untreated control cells at 450 nm was at least 1.0 optical density unit/ml. […]
(In general: Formazan colour is commonly taken as a measure of viable cells.)

The next assay deals with B-Raf (Homo sapiens, UniProt P15056). Kind of assay: Fluorescence anisotropy kinase binding assay (Assay 1). An excerpt:
Fluorescence Anisoptrophy Kinase Binding Assay
The concentration of kinase enzyme should preferably be >1×Kf. The concentration of fluorescent ligand required will depend on the instrumentation used, and the fluorescent and physicochemical properties. The concentration used must be lower than the concentration of kinase enzyme, and preferably less than half the kinase enzyme concentration. A typical protocol is:
All compounds are serially diluted in DMSO, then by a one step dilution into buffer of comparison, 50 mM HEPES, […] pH7.5, 1 mM CHAPS, 10 mM MgCL2, for the assay.
B-Raf Enzyme concentration: 1 nM
Fluorescent ligand concentration: 0.5 nM
Test compound concentration: 0.5 nM-100 uM
Components incubated in 10 ul final volume in LJL HE 384 type B black microtitre plate until equilibrium reached (Over 3 h, up to 30 h)
Fluorescence anisotropy read in an LJL Acquest fluorescence reader.
Definitions: Ki=dissociation constant for inhibitor binding
• Kf=dissociation constant for fluorescent ligand binding
The fluorescent ligand is the following compound:
which is derived from 5-[2-(4-aminomethylphenyl)-5-pyridin-4-yl-1H-imidazol-4-yl]-2-chlorophenol and rhodamine green.
For orientation: In fluorescence polarisation assays a small probe gives low polarisation when free and higher when bound to something large.

Assay [2] relates to colon carcinoma (Colo 205). Kind of assay: Methylene blue growth inhibition assay (Assay 2), Colo205. It counts as cell-based. The following applies: Homo sapiens, colorectal cancer, B-Raf V599E, Ras wt. As to the method:
(§4) Methylene Blue Growth Inhibition Assay (Assay 2)
(§5) Normal human foreskin fibroblasts (HFF), human melanoma (A375P, SKMEL2, SKMEL3) colon carcinoma (Colo 205) were cultured in the following growth media: A375P, Colo 205, Roswell Park Memorial Institute (RPMI) 1640 (Life Technologies 22400-089) containing 10% fetal bovine serum (FBS); HFF, Dulbecco's modified Eagle Medium (DMEM) (Life Technologies 12320-032) containing 10% FBS; SKMEL2 and SKMEL3, Minimum Essential Medium (MEM, Life Technologies 11095-080) containing 1× non-essential amino acids (Life Technologies 11140-050) and 10% FBS. Cells were harvested using 0.25% trypsin/1 mM, EDTA, counted using a haemocytometer, and plated in 100 microliters of the appropriate media, at the following densities, in a 96-well tissue culture plate (Falcon 3075): HFF and A375P, 5,000 cells/well; all other cell lines, 10,000 cells/well. The next day, compounds were diluted in RPMI containing 100 micrograms/ml gentamicin, at twice the final required concentration, from 10 mM stock solutions in dimethyl sulphoxide (DMSO). One hundred microliters per well of these dilutions were added to the 100 microliters of media currently on the cell plates. RPMI containing 0.6% DMSO was added to control wells. […] Optical density at 620 nm was measured on a microplate reader. Percent inhibition of cell growth was calculated relative to vehicle treated control wells. […]

The subject of assay [3] is Human diploid foreskin fibroblasts (HFF). Kind of assay: XTT 72 hr growth inhibition (Assay 3), HFF. It counts as cell-based. The following applies: Fibroblast, normal, B-Raf wt, Ras wt. On the procedure:
as §1, §2, §3

The subject of a further assay is human melanoma SKMEL3. In words: Methylene blue growth inhibition assay (Assay 2), SKMEL3. Format: cell-based. The settings on record: SK-MEL3, B-Raf V599E, Ras wt. On the procedure:
as §4, §5

A further assay deals with human melanoma A375P. Kind of assay: Methylene blue growth inhibition assay (Assay 2), A375P. It counts as cell-based. The settings on record: B-Raf V599E, Ras wt. As to the method: as §4, §5
The subject of a further assay is human melanoma SKMEL2. Kind of assay: Methylene blue growth inhibition assay (Assay 2), SKMEL2. Format: cell-based. The settings on record: SK-MEL-2, B-Raf wt, [Q61R]N-Ras. On the procedure: as §4, §5

Sequence of B-Raf (P15056 whole entry): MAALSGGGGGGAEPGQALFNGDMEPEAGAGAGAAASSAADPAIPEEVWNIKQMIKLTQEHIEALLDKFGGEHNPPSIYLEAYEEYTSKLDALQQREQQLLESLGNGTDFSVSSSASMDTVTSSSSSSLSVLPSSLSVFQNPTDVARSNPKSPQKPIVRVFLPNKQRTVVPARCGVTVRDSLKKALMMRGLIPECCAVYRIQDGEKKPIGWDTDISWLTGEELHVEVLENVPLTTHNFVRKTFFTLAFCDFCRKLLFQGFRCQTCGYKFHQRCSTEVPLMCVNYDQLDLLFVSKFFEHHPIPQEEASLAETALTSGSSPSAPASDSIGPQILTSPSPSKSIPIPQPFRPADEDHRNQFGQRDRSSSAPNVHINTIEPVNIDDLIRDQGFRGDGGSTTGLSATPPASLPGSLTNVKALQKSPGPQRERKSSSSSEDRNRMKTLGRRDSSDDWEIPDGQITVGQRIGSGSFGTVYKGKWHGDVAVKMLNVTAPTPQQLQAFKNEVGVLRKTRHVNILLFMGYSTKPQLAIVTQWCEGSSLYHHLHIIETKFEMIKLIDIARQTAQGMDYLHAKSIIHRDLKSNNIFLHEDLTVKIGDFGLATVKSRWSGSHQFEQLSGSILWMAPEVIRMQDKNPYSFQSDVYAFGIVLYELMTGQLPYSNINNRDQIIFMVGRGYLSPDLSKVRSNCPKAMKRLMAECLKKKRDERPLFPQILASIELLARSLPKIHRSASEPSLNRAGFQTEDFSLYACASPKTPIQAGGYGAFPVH

By IC50 is commonly meant the concentration needed to halve the response being measured. The term Kd denotes the concentration at which binding is half-saturated. High values mean weaker binding, low ones tighter binding. As for `CC(C)(CN)c1cc(-c2ccncc2)c(-c2ccc(Cl)c(O)c2)o1` [Example 3, 5-[5-(2-Amino-1,1-dimethyl-ethyl)-3-pyridin-4-yl-furan-2-yl]-2-chloro-phenol], the IC50 in assay [1] is 8.5 µM; in assay [2] it was 7.9 µM; in assay [3], 22 µM; with human melanoma SKMEL3, 1.4 µM; in the assay with human melanoma A375P, 1.8 µM; in the assay on human melanoma SKMEL2, 4.9 µM. The same molecule displayed an equilibrium dissociation constant (Kd) on B-Raf of 5.5 nM.
